Experimental data published in article PMC9668928, “Zandelisib (ME-401) in Japanese patients with relapsed or refractory indolent non-Hodgkin’s lymphoma: an open-label, multicenter, dose-escalation phase 1 study” (International Journal of Hematology, 2022).

System: Japanese patients with R/R iNHL
Assay: Phase 1 dose-escalation study: safety and tolerability (TEAEs, DLTs)
Type: in vivo
Text: Japanese patients aged ≥ 20 years with R/R iNHL histologically confirmed as FL, nodal MZL, extra-nodal MZL of mucosa-associated lymphoid tissue, small lymphocytic lymphoma, lymphoplasmacytic lymphoma, Waldenström’s macroglobulinemia, or equivalent, according to World Health Organization classification, were eligible for this study. Other key eligibility criteria included being PI3K inhibitor therapy-naïve and an Eastern Cooperative Oncology Group performance status of 0 or 1. Further details of inclusion and exclusion criteria are provided in Supplementary Table 1.
This was a multicenter, open-label, dose-escalation, phase 1 study in Japan. All patients received oral zandelisib once daily at the same time each day, at least 1 h before or 2 h after a meal (CS: continuous schedule). Each treatment cycle was 28 days. Definitions of the DLTs described in this study can be found in Supplementary Table 2. The observation period for DLTs was from day 1 of Cycle 1 to day 1 of Cycle 2. Zandelisib was administered until disease progression or unacceptable toxicity. In the event of an AE, patients could be switched to IDT. In the case of disease progression while receiving IDT, patients could be switched back to CS per the investigator’s discretion.
A starting dose of 45 mg was set for investigating patient safety. This study adopted a standard 3 + 3 design. […] If DLTs occurred in 2 or more patients, the study was planned to be suspended pending a safety evaluation. If a DLT occurred in 1 patient, 3 further patients were added to cohort 1. If DLTs occurred in 0/3 or 1/6 patients in cohort 1, dosing in cohort 2 commenced (n = 6; 60 mg/day). If the incidence of DLTs in cohort 2 was ≤ 1/6, the maximum tolerated dose was not determined, and the dose in cohort 2 was to be selected as the recommended Japanese phase 2 dose.
The primary endpoint was the safety [number of patients with treatment-emergent adverse events (TEAEs), based on Common Terminology Criteria for Adverse Events version 5.0] and tolerability (including laboratory values, vital signs, and electrocardiogram performance) of zandelisib in Japanese patients. Hepatobiliary disorder, aspartate/alanine (AST/ALT) increased, diarrhea/colitis, organizing pneumonia, stomatitis, or rash were defined as irAEs in this manuscript. Secondary endpoints included PK (plasma concentrations and PK parameters) and the efficacy of zandelisib. […] The PK parameters for Cycle 1 day 1 and Cycle 2 day 1 were calculated for each patient by non-compartmental analysis. PK parameters included maximum plasma drug concentration (Cmax), area under the plasma concentration–time curve (AUC) from time zero to the last measurable point (AUC0–t), the AUC from time zero to infinity (AUC0-inf), and terminal half-life (t1/2).

CN1CCC(c2ccccc2CC(C)(C)Nc2nc(N3CCOCC3)nc(-n3c(C(F)F)nc4ccccc43)n2)CC1 [zandelisib]
TEAE Cytomegalovirus viremia, Grade ≥ 3 (Total, N = 9): 0 n (%)
TEAE Decreased appetite, All grades (Total, N = 9): 1 (11.1) n (%)
TEAE Decreased appetite, Grade ≥ 3 (Total, N = 9): 1 (11.1) n (%)
TEAE Diarrhea, All grades (Total, N = 9): 4 (44.4) n (%)
TEAE Diarrhea, Grade ≥ 3 (Total, N = 9): 3 (33.3) n (%)
TEAE Drug hypersensitivity, All grades (Total, N = 9): 1 (11.1) n (%)
TEAE Drug hypersensitivity, Grade ≥ 3 (Total, N = 9): 0 n (%)
TEAE Drug-induced liver injury, All grades (Total, N = 9): 1 (11.1) n (%)
TEAE Drug-induced liver injury, Grade ≥ 3 (Total, N = 9): 1 (11.1) n (%)
TEAE Dry eye, All grades (Total, N = 9): 1 (11.1) n (%)
TEAE Dry eye, Grade ≥ 3 (Total, N = 9): 0 n (%)
TEAE Dry skin, All grades (Total, N = 9): 2 (22.2) n (%)
TEAE Dry skin, Grade ≥ 3 (Total, N = 9): 0 n (%)
TEAE Dysgeusia, All grades (Total, N = 9): 1 (11.1) n (%)
TEAE Dysgeusia, Grade ≥ 3 (Total, N = 9): 0 n (%)
TEAE Dyspnea, All grades (Total, N = 9): 1 (11.1) n (%)
TEAE Dyspnea, Grade ≥ 3 (Total, N = 9): 1 (11.1) n (%)
TEAE Ear and labyrinth disorders (SOC), All grades (Total, N = 9): 1 (11.1) n (%)
TEAE Ear and labyrinth disorders (SOC), Grade ≥ 3 (Total, N = 9): 0 n (%)
TEAE Eczema, All grades (Total, N = 9): 1 (11.1) n (%)
TEAE Eczema, Grade ≥ 3 (Total, N = 9): 0 n (%)
TEAE Eosinophil count increased, All grades (Total, N = 9): 1 (11.1) n (%)
TEAE Eosinophil count increased, Grade ≥ 3 (Total, N = 9): 0 n (%)
TEAE Erythema multiforme, All grades (Total, N = 9): 1 (11.1) n (%)
TEAE Erythema multiforme, Grade ≥ 3 (Total, N = 9): 0 n (%)
TEAE Eye disorders (SOC), All grades (Total, N = 9): 2 (22.2) n (%)
TEAE Eye disorders (SOC), Grade ≥ 3 (Total, N = 9): 0 n (%)
TEAE Flank pain, All grades (Total, N = 9): 1 (11.1) n (%)
TEAE Flank pain, Grade ≥ 3 (Total, N = 9): 0 n (%)
TEAE GGT increased, All grades (Total, N = 9): 1 (11.1) n (%)
TEAE GGT increased, Grade ≥ 3 (Total, N = 9): 1 (11.1) n (%)
TEAE Gastrointestinal disorders (SOC), All grades (Total, N = 9): 6 (66.7) n (%)
TEAE Gastrointestinal disorders (SOC), Grade ≥ 3 (Total, N = 9): 4 (44.4) n (%)
TEAE General disorders and administration site conditions (SOC), All grades (Total, N = 9): 1 (11.1) n (%)
TEAE General disorders and administration site conditions (SOC), Grade ≥ 3 (Total, N = 9): 0 n (%)
TEAE Hepatic function abnormal, All grades (Total, N = 9): 2 (22.2) n (%)
TEAE Hepatic function abnormal, Grade ≥ 3 (Total, N = 9): 1 (11.1) n (%)
TEAE Hepatobiliary disorders (SOC), All grades (Total, N = 9): 3 (33.3) n (%)
TEAE Hepatobiliary disorders (SOC), Grade ≥ 3 (Total, N = 9): 2 (22.2) n (%)
TEAE Herpes simplex, All grades (Total, N = 9): 1 (11.1) n (%)
TEAE Herpes simplex, Grade ≥ 3 (Total, N = 9): 0 n (%)
TEAE Herpes zoster, All grades (Total, N = 9): 1 (11.1) n (%)
TEAE Herpes zoster, Grade ≥ 3 (Total, N = 9): 0 n (%)
TEAE Hypoesthesia, All grades (Total, N = 9): 1 (11.1) n (%)
TEAE Hypoesthesia, Grade ≥ 3 (Total, N = 9): 0 n (%)
TEAE Hypogammaglobulinemia, All grades (Total, N = 9): 2 (22.2) n (%)
TEAE Hypogammaglobulinemia, Grade ≥ 3 (Total, N = 9): 0 n (%)
TEAE Immune system disorders (SOC), All grades (Total, N = 9): 3 (33.3) n (%)
TEAE Immune system disorders (SOC), Grade ≥ 3 (Total, N = 9): 0 n (%)
TEAE Infections and infestations (SOC), All grades (Total, N = 9): 6 (66.7) n (%)
TEAE Infections and infestations (SOC), Grade ≥ 3 (Total, N = 9): 0 n (%)
TEAE Infusion site extravasation, All grades (Total, N = 9): 1 (11.1) n (%)
TEAE Infusion site extravasation, Grade ≥ 3 (Total, N = 9): 0 n (%)
TEAE Insomnia, All grades (Total, N = 9): 1 (11.1) n (%)
TEAE Insomnia, Grade ≥ 3 (Total, N = 9): 0 n (%)
TEAE Investigations (SOC), All grades (Total, N = 9): 9 (100.0) n (%)
TEAE Investigations (SOC), Grade ≥ 3 (Total, N = 9): 6 (66.7) n (%)
TEAE Joint effusion, All grades (Total, N = 9): 1 (11.1) n (%)
TEAE Joint effusion, Grade ≥ 3 (Total, N = 9): 0 n (%)
TEAE Lymphocyte count decreased, All grades (Total, N = 9): 3 (33.3) n (%)
TEAE Lymphocyte count decreased, Grade ≥ 3 (Total, N = 9): 1 (11.1) n (%)
TEAE Metabolism and nutrition disorders (SOC), All grades (Total, N = 9): 1 (11.1) n (%)
TEAE Metabolism and nutrition disorders (SOC), Grade ≥ 3 (Total, N = 9): 1 (11.1) n (%)
TEAE Muscle spasms, All grades (Total, N = 9): 1 (11.1) n (%)
TEAE Muscle spasms, Grade ≥ 3 (Total, N = 9): 0 n (%)
TEAE Musculoskeletal and connective tissue disorders (SOC), All grades (Total, N = 9): 4 (44.4) n (%)
TEAE Musculoskeletal and connective tissue disorders (SOC), Grade ≥ 3 (Total, N = 9): 0 n (%)
TEAE Nasopharyngitis, All grades (Total, N = 9): 5 (55.6) n (%)
TEAE Nasopharyngitis, Grade ≥ 3 (Total, N = 9): 0 n (%)
TEAE Nausea, All grades (Total, N = 9): 3 (33.3) n (%)
TEAE Nausea, Grade ≥ 3 (Total, N = 9): 0 n (%)
TEAE Nervous system disorders (SOC), All grades (Total, N = 9): 1 (11.1) n (%)
TEAE Nervous system disorders (SOC), Grade ≥ 3 (Total, N = 9): 0 n (%)
TEAE Neutrophil count decreased, All grades (Total, N = 9): 8 (88.9) n (%)
TEAE Neutrophil count decreased, Grade ≥ 3 (Total, N = 9): 5 (55.6) n (%)
TEAE Oral herpes, All grades (Total, N = 9): 1 (11.1) n (%)
TEAE Oral herpes, Grade ≥ 3 (Total, N = 9): 0 n (%)
TEAE Organizing pneumonia, All grades (Total, N = 9): 1 (11.1) n (%)
TEAE Organizing pneumonia, Grade ≥ 3 (Total, N = 9): 1 (11.1) n (%)
TEAE Oropharyngeal pain, All grades (Total, N = 9): 2 (22.2) n (%)
TEAE Oropharyngeal pain, Grade ≥ 3 (Total, N = 9): 0 n (%)
TEAE Pancreatitis, All grades (Total, N = 9): 1 (11.1) n (%)
TEAE Pancreatitis, Grade ≥ 3 (Total, N = 9): 1 (11.1) n (%)
TEAE Pharyngeal paresthesia, All grades (Total, N = 9): 1 (11.1) n (%)
TEAE Pharyngeal paresthesia, Grade ≥ 3 (Total, N = 9): 0 n (%)
TEAE Pruritus, All grades (Total, N = 9): 1 (11.1) n (%)
TEAE Pruritus, Grade ≥ 3 (Total, N = 9): 0 n (%)
TEAE Psychiatric disorders (SOC), All grades (Total, N = 9): 1 (11.1) n (%)
TEAE Psychiatric disorders (SOC), Grade ≥ 3 (Total, N = 9): 0 n (%)
TEAE Rash maculopapular, All grades (Total, N = 9): 5 (55.6) n (%)
TEAE Rash maculopapular, Grade ≥ 3 (Total, N = 9): 1 (11.1) n (%)
TEAE Rash, All grades (Total, N = 9): 4 (44.4) n (%)
TEAE Rash, Grade ≥ 3 (Total, N = 9): 0 n (%)
TEAE Renal and urinary disorders (SOC), All grades (Total, N = 9): 1 (11.1) n (%)
TEAE Renal and urinary disorders (SOC), Grade ≥ 3 (Total, N = 9): 0 n (%)
TEAE Renal impairment, All grades (Total, N = 9): 1 (11.1) n (%)
TEAE Renal impairment, Grade ≥ 3 (Total, N = 9): 0 n (%)
TEAE Respiratory, thoracic, and mediastinal disorders (SOC), All grades (Total, N = 9): 4 (44.4) n (%)
TEAE Respiratory, thoracic, and mediastinal disorders (SOC), Grade ≥ 3 (Total, N = 9): 1 (11.1) n (%)
TEAE Skin and subcutaneous tissue disorders (SOC), All grades (Total, N = 9): 9 (100.0) n (%)
TEAE Skin and subcutaneous tissue disorders (SOC), Grade ≥ 3 (Total, N = 9): 1 (11.1) n (%)
TEAE Stomatitis, All grades (Total, N = 9): 2 (22.2) n (%)
TEAE Stomatitis, Grade ≥ 3 (Total, N = 9): 1 (11.1) n (%)
TEAE Subcutaneous abscess, All grades (Total, N = 9): 1 (11.1) n (%)
TEAE Subcutaneous abscess, Grade ≥ 3 (Total, N = 9): 0 n (%)
TEAE Tinnitus, All grades (Total, N = 9): 1 (11.1) n (%)
TEAE Tinnitus, Grade ≥ 3 (Total, N = 9): 0 n (%)
TEAE Urticaria, All grades (Total, N = 9): 1 (11.1) n (%)
TEAE Urticaria, Grade ≥ 3 (Total, N = 9): 0 n (%)
TEAE Vomiting, All grades (Total, N = 9): 2 (22.2) n (%)
TEAE Vomiting, Grade ≥ 3 (Total, N = 9): 0 n (%)
TEAE WBC count decreased, All grades (Total, N = 9): 4 (44.4) n (%)
TEAE WBC count decreased, Grade ≥ 3 (Total, N = 9): 0 n (%)
discontinued treatment due to TEAEs (cohort 1, 45 mg/day): 2 patients
discontinued treatment due to TEAEs (cohort 2, 60 mg/day): 2 patients
discontinuation due to irAEs (during IDT): no discontinuation due to irAEs occurred during IDT
recurrence of Grade ≥ 3 irAEs and any grade irAEs leading to drug interruption (during IDT): 4/8
